{"source": "patent EP0920857B1", "about": "“Oral composition for the treatment of halitosis” (DENTAID, S.A., priority 1997, dated 1999)", "type_in_all_cases": "cell-based", "key": {"P. gingivalis": {"test_system": "P. gingivalis", "assay": "short interval killing test (SIKT), count per strain", "description": "(§1) The anti-microbial activity of the mouth rinse evaluated \"in vitro\" by mortality studies over short intervals of time (short interval killing test, SIKT) against a mixture of periodontal bacteria containing between 1.0*10^5 and 1.0*10^7 CFU ml of each strain. The total counts obtained in the surviving flora and those pertaining to each strain after one minute of contact are summarised in Tables 3 and 4. TABLA 3"}, "P. intermedia": {"test_system": "P. intermedia", "assay": "short interval killing test (SIKT), count per strain", "description": "as §1"}, "[1]": {"test_system": "Peptostreptococcus micros", "assay": "short interval killing test (SIKT), count per strain", "description": "as §1"}, "F. nucleatum": {"test_system": "F. nucleatum", "assay": "short interval killing test (SIKT), count per strain", "description": "as §1"}, "[2]": {"test_system": "mixture of periodontal bacteria", "assay": "short interval killing test (SIKT), total surviving flora", "description": "as §1"}, "P.gingivalis": {"test_system": "P.gingivalis", "assay": "minimum inhibitory concentration (MIC), method of diffusion in agar", "description": "(§2) The anti-microbial activity of a certain number of active ingredients was obtained by study of the minimum inhibitory concentrations (MIC) of the respective agents (by the method of diffusion in agar) against bacteria representing periodontal disease."}, "P.intermedia": {"test_system": "P.intermedia", "assay": "minimum inhibitory concentration (MIC), method of diffusion in agar", "description": "as §2"}, "A.actinomycetemcomitans": {"test_system": "A.actinomycetemcomitans", "assay": "minimum inhibitory concentration (MIC), method of diffusion in agar", "description": "as §2"}, "[3]": {"settings": "P. gingivalis, one minute of contact, PBS = 100%"}, "[4]": {"settings": "P. intermedia, one minute of contact, PBS = 100%"}, "[5]": {"settings": "Peptostreptococcus micros, one minute of contact, PBS = 100%"}, "[6]": {"settings": "F. nucleatum, one minute of contact, PBS = 100%"}, "[7]": {"settings": "one minute of contact, 1.0*10^5 to 1.0*10^7 CFU ml of each strain, PBS = 100%"}}, "note": "Like-named read-outs stand apart in the source and are kept apart here."}
{"compound": "N=C(NCCCCCCNC(=N)NC(=N)Nc1ccc(Cl)cc1)NC(=N)Nc1ccc(Cl)cc1.O=C(O)[C@H](O)[C@@H](O)[C@H](O)[C@H](O)CO.O=C(O)[C@H](O)[C@@H](O)[C@H](O)[C@H](O)CO", "note": "[CHX, 1,6-bis (N^5-p-chlorophenyl-N^1-diguanido)hexane digluconate]", "values": [{"measurement": "CFU/ml recovered from each strain (%)", "setting": "P. gingivalis; [3]", "result": "<0.81", "unit": "%"}, {"measurement": "CFU/ml recovered from each strain (%)", "setting": "P. intermedia; [4]", "result": "<0.56", "unit": "%"}, {"measurement": "CFU/ml recovered from each strain (%)", "setting": "[1]; [5]", "result": 82.12, "unit": "%"}, {"measurement": "CFU/ml recovered from each strain (%)", "setting": "F. nucleatum; [6]", "result": 0.87, "unit": "%"}, {"measurement": "Total CFU/ml recovered (%) at 1 minute", "setting": "[2]; [7]", "result": 25.55, "unit": "%"}]}
{"compound": "CCCCCCCCCCCCCCCC[n+]1ccccc1", "note": "[CPC, cetylpyridinium chloride]", "values": [{"measurement": "CFU/ml recovered from each strain (%)", "setting": "P. gingivalis", "result": "<0.01", "unit": "%"}, {"measurement": "CFU/ml recovered from each strain (%)", "setting": "P. intermedia", "result": 0.01, "unit": "%"}, {"measurement": "CFU/ml recovered from each strain (%)", "setting": "[1]", "result": 0.03, "unit": "%"}, {"measurement": "CFU/ml recovered from each strain (%)", "setting": "F. nucleatum", "result": 0.05, "unit": "%"}, {"measurement": "Total CFU/ml recovered (%) at 1 minute", "setting": "[2]", "result": 0.04, "unit": "%"}]}
{"compound": "[H]/N=C(\\N/C(=N/[H])NCCCCCCNC(=N)NC(=N)Nc1ccc(Cl)cc1)Nc1ccc(Cl)cc1", "note": "[Chlorhexidine]", "values": [{"measurement": "Minimum inhibitory concentration (%)", "setting": "P.gingivalis", "result": 0.002, "unit": "%"}, {"measurement": "Minimum inhibitory concentration (MIC, % concentration)", "setting": "P.intermedia", "result": 0.0009, "unit": "%"}, {"measurement": "Minimum inhibitory concentration", "setting": "A.actinomycetemcomitans", "result": 0.004, "unit": "%"}]}
{"compound": "O=C([O-])[C@H](O)[C@@H](O)[C@H](O)[C@H](O)CO.O=C([O-])[C@H](O)[C@@H](O)[C@H](O)[C@H](O)CO.[Cu+2]", "note": "[Cu^++ gluconate]", "values": [{"measurement": "Minimum inhibitory concentration (%)", "setting": "P.gingivalis", "result": 0.06, "unit": "%"}, {"measurement": "Minimum inhibitory concentration (MIC, % concentration)", "setting": "P.intermedia", "result": 0.004, "unit": "%"}]}
{"compound": "CCCCC(CC)CN1CN(CC(CC)CCCC)CC(C)(N)C1", "note": "(centres unmarked) [Hexetidine]", "values": [{"measurement": "Minimum inhibitory concentration (%)", "setting": "P.gingivalis", "result": 0.001, "unit": "%"}, {"measurement": "Minimum inhibitory concentration (MIC, % concentration)", "setting": "P.intermedia", "result": 0.001, "unit": "%"}, {"measurement": "Minimum inhibitory concentration", "setting": "A.actinomycetemcomitans", "result": 0.09, "unit": "%"}]}
{"compound": "Oc1cc(Cl)ccc1Oc1ccc(Cl)cc1Cl", "note": "[Triclosan, 5-chloro-2-(2,4-dichlorophenoxy)-phenol]", "values": [{"measurement": "Minimum inhibitory concentration (%)", "setting": "P.gingivalis", "result": 0.004, "unit": "%"}, {"measurement": "Minimum inhibitory concentration (MIC, % concentration)", "setting": "P.intermedia", "result": 0.009, "unit": "%"}, {"measurement": "Minimum inhibitory concentration", "setting": "A.actinomycetemcomitans", "result": 0.0006, "unit": "%"}]}
{"compound": "O=S(=O)([O-])[O-].[Zn+2]", "note": "[Zn^++, sulphate]", "values": [{"measurement": "Minimum inhibitory concentration (%)", "setting": "P.gingivalis", "result": 0.5, "unit": "%"}, {"measurement": "Minimum inhibitory concentration (MIC, % concentration)", "setting": "P.intermedia", "result": 0.5, "unit": "%"}, {"measurement": "Minimum inhibitory concentration", "setting": "A.actinomycetemcomitans", "result": 0.1, "unit": "%"}, {"measurement": "CFU/ml recovered from each strain (%)", "setting": "P. gingivalis; [3]", "result": 33.9, "unit": "%"}, {"measurement": "CFU/ml recovered from each strain (%)", "setting": "P. intermedia; [4]", "result": 0.56, "unit": "%"}, {"measurement": "CFU/ml recovered from each strain (%)", "setting": "[1]; [5]", "result": 54.5, "unit": "%"}, {"measurement": "CFU/ml recovered from each strain (%)", "setting": "F. nucleatum; [6]", "result": 40.9, "unit": "%"}, {"measurement": "Total CFU/ml recovered (%) at 1 minute", "setting": "[2]; [7]", "result": 47.65, "unit": "%"}]}
